Data published in patent US20250353891A1 (MEDIMMUNE LIMITED, priority 2022, published 2025).
Starred links: 1 amine or outer side, 2 acyl side, 3 side chain; linkers in the order of their positions; H or OH if unused. Non-standard residues stand in square brackets, D forms with d. Residues, ends and D or L forms follow the SMILES beside them. Groups on a side chain read outwards from the residue. *: point of attachment. C20 diacid = O=C(O)CCCCCCCCCCCCCCCCCCC(=O)*; γGlu = O=C(O)[C@H](CCC(=O)[*:2])N[*:1]; αMeF = C[C@](N)(Cc1ccccc1)C(=O)O; AEEA = NCCOCCOCC(=O)O; Aib = CC(C)(N)C(=O)O

Tests used:
[1] = target: human glucagon receptor (hGCGR) (Homo sapiens, UniProt P47871); assay: cAMP production (HTRF) in CHO cells expressing hGCGR; assay type: cell-based; set-up: expressed in transfected cells; conditions: Table 7, peptides modified at position 20; cAMP in CHO hGCGR cells; geometric mean; read-out: hGluc-R EC50
Outline: (§1)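 Cells were resuspended in assay buffer at batch-optimized density, typically 1×10^5 cells/mL for hGLP-1R and 2×10^5 cells/mL for hGCGR. After 30 min incubation at room temperature with compound, cAMP was measured by two-step HTRF. EC50 values came from 4-parameter logistic fits of % Delta F.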

[2] = target: human GLP-1 receptor (hGLP-1R) (Homo sapiens, UniProt P43220); assay: cAMP production (HTRF) in CHO cells expressing hGLP-1R; assay type: cell-based; set-up: expressed in transfected cells; conditions: for EC50: Table 7, peptides modified at position 20, cAMP in CHO hGLP-1R cells, geometric mean, read-out: hGLP-1R EC50; for % Relative Potency Ratio: Table 7, % GLP-1R activity relative to GLP-1 / % GlucR activity relative to glucagon
Outline: as §1

Sequence of human glucagon receptor (hGCGR) (P47871 26-477): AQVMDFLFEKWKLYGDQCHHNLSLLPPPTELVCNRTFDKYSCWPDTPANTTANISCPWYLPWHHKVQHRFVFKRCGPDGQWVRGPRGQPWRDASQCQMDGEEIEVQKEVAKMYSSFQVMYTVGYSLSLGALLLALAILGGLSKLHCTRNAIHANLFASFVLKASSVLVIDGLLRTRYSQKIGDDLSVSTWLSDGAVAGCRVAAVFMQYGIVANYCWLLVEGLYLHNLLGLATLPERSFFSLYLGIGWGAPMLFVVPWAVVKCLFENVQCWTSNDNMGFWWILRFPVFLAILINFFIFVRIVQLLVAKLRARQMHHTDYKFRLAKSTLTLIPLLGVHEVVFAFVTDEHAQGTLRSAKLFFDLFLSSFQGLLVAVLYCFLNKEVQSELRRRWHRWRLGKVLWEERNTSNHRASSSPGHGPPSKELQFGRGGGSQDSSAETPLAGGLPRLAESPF
Sequence of human GLP-1 receptor (hGLP-1R) (P43220 24-463): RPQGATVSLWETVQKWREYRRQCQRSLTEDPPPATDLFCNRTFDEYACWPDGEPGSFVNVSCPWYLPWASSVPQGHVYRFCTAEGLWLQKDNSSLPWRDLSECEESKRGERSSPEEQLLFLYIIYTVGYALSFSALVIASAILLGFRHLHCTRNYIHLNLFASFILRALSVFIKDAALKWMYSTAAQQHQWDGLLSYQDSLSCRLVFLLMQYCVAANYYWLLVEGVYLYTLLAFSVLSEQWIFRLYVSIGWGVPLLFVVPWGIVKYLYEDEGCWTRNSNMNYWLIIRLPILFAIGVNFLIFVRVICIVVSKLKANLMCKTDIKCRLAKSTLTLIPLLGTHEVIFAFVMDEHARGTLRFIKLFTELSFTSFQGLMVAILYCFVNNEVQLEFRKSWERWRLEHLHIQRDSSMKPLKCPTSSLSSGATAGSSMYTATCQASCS

| Structure (SMILES) | EC50 [1] | EC50 [2] | % Relative Potency Ratio [2] |
| --- | --- | --- | --- |
| CC[C@H](C)[C@H](NC(=O)[C@H](Cc1c[nH]c2ccccc12)NC(=O)[C@H](CCC(N)=O)NC(=O)[C@@H](NC(=O)[C@](C)(Cc1ccccc1)NC(=O)[C@H](CC(=O)O)NC(=O)[C@H](CCCCNC(=O)COCCOCCNC(=O)COCCOCCNC(=O)CC[C@H](NC(=O)CCCCCCCCCCCCCCCCCCC(=O)O)C(=O)O)NC(=O)[C@H](C)NC(=O)[C@H](C)NC(=O)[C@H](CCCNC(=N)N)NC(=O)[C@H](CO)NC(=O)[C@H](CC(=O)O)NC(=O)[C@H](CC(C)C)NC(=O)[C@](C)(Cc1ccccc1)NC(=O)[C@H](CCCCN)NC(=O)[C@H](CO)NC(=O)[C@@H](NC(=O)[C@H](CC(=O)O)NC(=O)[C@H](CO)NC(=O)[C@@H](NC(=O)[C@](C)(Cc1ccccc1)NC(=O)[C@H](CO)NC(=O)CNC(=O)[C@H](Cc1c[nH]cn1)NC(=O)C(C)(C)NC(=O)[C@@H](N)Cc1c[nH]cn1)[C@@H](C)O)C(C)C)C(C)C)C(=O)N[C@@H](C)C(=O)N[C@@H](CC(N)=O)C(=O)N[C@H](C(N)=O)[C@@H](C)O [Peptide 215] (H-H[Aib]HGS[αMeF]TSDVSK[αMeF]LDSRAAK([AEEA-AEEA-γGlu-C20 diacid])D[αMeF]VQWIANT-NH2; N-terminus assumed) | 2610 pM | 7620 pM | 0.7 |
| CC[C@H](C)[C@H](NC(=O)[C@H](Cc1c[nH]c2ccccc12)NC(=O)[C@H](CCC(=O)O)NC(=O)[C@@H](NC(=O)[C@](C)(Cc1ccccc1)NC(=O)[C@H](CC(=O)O)NC(=O)[C@H](CCCCNC(=O)COCCOCCNC(=O)COCCOCCNC(=O)CC[C@H](NC(=O)CCCCCCCCCCCCCCCCCCC(=O)O)C(=O)O)NC(=O)[C@H](C)NC(=O)[C@H](C)NC(=O)[C@H](CCCNC(=N)N)NC(=O)[C@H](CO)NC(=O)[C@H](CC(=O)O)NC(=O)[C@H](CC(C)C)NC(=O)[C@](C)(Cc1ccccc1)NC(=O)[C@H](CCCCN)NC(=O)[C@H](CO)NC(=O)[C@@H](NC(=O)[C@H](CC(=O)O)NC(=O)[C@H](CO)NC(=O)[C@@H](NC(=O)[C@](C)(Cc1ccccc1)NC(=O)[C@H](CO)NC(=O)CNC(=O)[C@H](Cc1c[nH]cn1)NC(=O)C(C)(C)NC(=O)[C@@H](N)Cc1c[nH]cn1)[C@@H](C)O)C(C)C)C(C)C)C(=O)N[C@@H](C)C(=O)N[C@@H](CC(N)=O)C(=O)N[C@H](C(N)=O)[C@@H](C)O [Peptide 216] (H-H[Aib]HGS[αMeF]TSDVSK[αMeF]LDSRAAK([AEEA-AEEA-γGlu-C20 diacid])D[αMeF]VEWIANT-NH2) | 5670 pM | 18100 pM | 0.6 |
| CC[C@H](C)[C@H](NC(=O)[C@H](Cc1c[nH]c2ccccc12)NC(=O)[C@H](CCC(N)=O)NC(=O)[C@@H](NC(=O)[C@H](Cc1ccccc1)NC(=O)[C@H](CC(=O)O)NC(=O)[C@H](CCCCNC(=O)COCCOCCNC(=O)COCCOCCNC(=O)CC[C@H](NC(=O)CC[C@H](NC(=O)CCCCCCCCCCCCCCCCCCC(=O)O)C(=O)O)C(=O)O)NC(=O)[C@H](C)NC(=O)C(C)(C)NC(=O)[C@H](CCCNC(=N)N)NC(=O)[C@H](CO)NC(=O)[C@H](CC(=O)O)NC(=O)[C@H](CC(C)C)NC(=O)[C@](C)(Cc1ccccc1)NC(=O)[C@H](CCCCN)NC(=O)[C@H](CO)NC(=O)[C@@H](NC(=O)[C@H](CC(=O)O)NC(=O)[C@H](CO)NC(=O)[C@@H](NC(=O)[C@](C)(Cc1ccccc1)NC(=O)[C@H](CO)NC(=O)CNC(=O)[C@H](Cc1c[nH]cn1)NC(=O)C(C)(C)NC(=O)[C@@H](N)Cc1c[nH]cn1)[C@@H](C)O)C(C)C)C(C)C)C(=O)N[C@@H](C)C(=O)N[C@@H](CC(N)=O)C(=O)N[C@H](C(N)=O)[C@@H](C)O [Peptide 217] (H-H[Aib]HGS[αMeF]TSDVSK[αMeF]LDSR[Aib]AK([AEEA-AEEA-γGlu-γGlu-C20 diacid])DFVQWIANT-NH2) | 127 pM | 264 pM | 0.9 |
| CC[C@H](C)[C@H](NC(=O)[C@H](Cc1c[nH]c2ccccc12)NC(=O)[C@H](CCC(N)=O)NC(=O)[C@@H](NC(=O)[C@H](Cc1ccccc1)NC(=O)[C@H](CC(=O)O)NC(=O)[C@H](CCCCNC(=O)COCCOCCNC(=O)COCCOCCNC(=O)CC[C@H](NC(=O)CC[C@H](NC(=O)CCCCCCCCCCCCCCCCCCC(=O)O)C(=O)O)C(=O)O)NC(=O)[C@H](C)NC(=O)[C@H](C)NC(=O)[C@H](CCCNC(=N)N)NC(=O)[C@H](CO)NC(=O)[C@H](CC(=O)O)NC(=O)[C@H](CC(C)C)NC(=O)[C@](C)(Cc1ccccc1)NC(=O)[C@H](CCCCN)NC(=O)[C@H](CO)NC(=O)[C@@H](NC(=O)[C@H](CC(=O)O)NC(=O)[C@H](CO)NC(=O)[C@@H](NC(=O)[C@](C)(Cc1ccccc1)NC(=O)[C@H](CO)NC(=O)CNC(=O)[C@H](Cc1c[nH]cn1)NC(=O)C(C)(C)NC(=O)[C@@H](N)Cc1c[nH]cn1)[C@@H](C)O)C(C)C)C(C)C)C(=O)N[C@@H](C)C(=O)N[C@@H](CC(N)=O)C(=O)N[C@H](C(=O)NCC(N)=O)[C@@H](C)O [Peptide 218] (H-H[Aib]HGS[αMeF]TSDVSK[αMeF]LDSRAAK([AEEA-AEEA-γGlu-γGlu-C20 diacid])DFVQWIANTG-NH2) | 423 pM | 139 pM | 6.0 |
| CC[C@H](C)[C@H](NC(=O)[C@H](Cc1c[nH]c2ccccc12)NC(=O)[C@H](CCC(N)=O)NC(=O)[C@@H](NC(=O)[C@H](Cc1ccccc1)NC(=O)[C@H](CC(=O)O)NC(=O)[C@H](CCCCNC(=O)COCCOCCNC(=O)COCCOCCNC(=O)CC[C@H](NC(=O)CC[C@H](NC(=O)CCCCCCCCCCCCCCCCCCC(=O)O)C(=O)O)C(=O)O)NC(=O)[C@H](C)NC(=O)[C@H](C)NC(=O)[C@H](CCCNC(=N)N)NC(=O)[C@H](CO)NC(=O)[C@H](CC(=O)O)NC(=O)[C@H](CC(C)C)NC(=O)[C@](C)(Cc1ccccc1)NC(=O)[C@H](CCCCN)NC(=O)[C@H](CO)NC(=O)[C@@H](NC(=O)[C@H](CC(=O)O)NC(=O)[C@H](CO)NC(=O)[C@@H](NC(=O)[C@](C)(Cc1ccccc1)NC(=O)[C@H](CO)NC(=O)CNC(=O)[C@H](Cc1c[nH]cn1)NC(=O)C(C)(C)NC(=O)[C@@H](N)Cc1c[nH]cn1)[C@@H](C)O)C(C)C)C(C)C)C(=O)N[C@@H](C)C(=O)N[C@@H](CC(N)=O)C(=O)N[C@H](C(=O)NCC(=O)NCC(N)=O)[C@@H](C)O [Peptide 219] (H-H[Aib]HGS[αMeF]TSDVSK[αMeF]LDSRAAK([AEEA-AEEA-γGlu-γGlu-C20 diacid])DFVQWIANTGG-NH2; N-terminus assumed) | 298 pM | 94.5 pM | 6.2 |
| CC[C@H](C)[C@H](NC(=O)C(C)(C)NC(=O)[C@H](CCC(N)=O)NC(=O)[C@@H](NC(=O)[C@H](Cc1ccccc1)NC(=O)[C@H](CC(=O)O)NC(=O)[C@H](CCCCNC(=O)COCCOCCNC(=O)COCCOCCNC(=O)CC[C@H](NC(=O)CC[C@H](NC(=O)CCCCCCCCCCCCCCCCCCC(=O)O)C(=O)O)C(=O)O)NC(=O)[C@H](C)NC(=O)C(C)(C)NC(=O)[C@H](CCCNC(=N)N)NC(=O)[C@H](CO)NC(=O)[C@H](CC(=O)O)NC(=O)[C@H](CC(C)C)NC(=O)[C@](C)(Cc1ccccc1)NC(=O)[C@H](CCCCN)NC(=O)[C@H](CO)NC(=O)[C@@H](NC(=O)[C@H](CC(=O)O)NC(=O)[C@H](CO)NC(=O)[C@@H](NC(=O)[C@](C)(Cc1ccccc1)NC(=O)[C@H](CO)NC(=O)CNC(=O)[C@H](Cc1c[nH]cn1)NC(=O)C(C)(C)NC(=O)[C@@H](N)Cc1c[nH]cn1)[C@@H](C)O)C(C)C)C(C)C)C(=O)N[C@@H](C)C(=O)N[C@@H](CC(N)=O)C(=O)N[C@H](C(N)=O)[C@@H](C)O [Peptide 220] (H-H[Aib]HGS[αMeF]TSDVSK[αMeF]LDSR[Aib]AK([AEEA-AEEA-γGlu-γGlu-C20 diacid])DFVQ[Aib]IANT-NH2) | 405 pM | 240 pM | 3.3 |
| CC[C@H](C)[C@H](NC(=O)C(C)(C)NC(=O)[C@H](CCC(N)=O)NC(=O)[C@@H](NC(=O)[C@H](Cc1ccccc1)NC(=O)[C@H](CC(=O)O)NC(=O)[C@H](CCCCNC(=O)COCCOCCNC(=O)COCCOCCNC(=O)CC[C@H](NC(=O)CC[C@H](NC(=O)CCCCCCCCCCCCCCCCCCC(=O)O)C(=O)O)C(=O)O)NC(=O)[C@H](C)NC(=O)[C@H](C)NC(=O)[C@H](CCCNC(=N)N)NC(=O)[C@H](CO)NC(=O)[C@H](CC(=O)O)NC(=O)[C@H](CC(C)C)NC(=O)[C@](C)(Cc1ccccc1)NC(=O)[C@H](CCCCN)NC(=O)[C@H](CO)NC(=O)[C@@H](NC(=O)[C@H](CC(=O)O)NC(=O)[C@H](CO)NC(=O)[C@@H](NC(=O)[C@](C)(Cc1ccccc1)NC(=O)[C@H](CO)NC(=O)CNC(=O)[C@H](Cc1c[nH]cn1)NC(=O)C(C)(C)NC(=O)[C@@H](N)Cc1c[nH]cn1)[C@@H](C)O)C(C)C)C(C)C)C(=O)N[C@@H](C)C(=O)N[C@@H](CC(N)=O)C(=O)N[C@H](C(N)=O)[C@@H](C)O [Peptide 221] (H-H[Aib]HGS[αMeF]TSDVSK[αMeF]LDSRAAK([AEEA-AEEA-γGlu-γGlu-C20 diacid])DFVQ[Aib]IANT-NH2; N-terminus assumed) | 123 pM | 122 pM | 2.0 |
